From PubChem BioAssay AID624092 (The Scripps Research Institute Molecular Screening Center, 2012)
Calls of active or inactive are those of the source.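 How the source made its calls: active means compounds blocking the TEM-1 enzyme with a half-maximal inhibitory concentration of 10 micromolar or lower; inactive means the rest.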

Target: Beta-lactamase TEM (Escherichia coli) (UniProt P62593)
Assay: TEM-1 beta-lactamase inhibitor potency, late-stage follow-up, selectivity assay, biochemical, absorbance, probe candidates and analogs (AID 624092)
Conditions: purified TEM-1, nitrocefin hydrolysis, epi-absorbance

Beta-lactamase TEM (Escherichia coli), sequence (P62593 whole entry, looked up): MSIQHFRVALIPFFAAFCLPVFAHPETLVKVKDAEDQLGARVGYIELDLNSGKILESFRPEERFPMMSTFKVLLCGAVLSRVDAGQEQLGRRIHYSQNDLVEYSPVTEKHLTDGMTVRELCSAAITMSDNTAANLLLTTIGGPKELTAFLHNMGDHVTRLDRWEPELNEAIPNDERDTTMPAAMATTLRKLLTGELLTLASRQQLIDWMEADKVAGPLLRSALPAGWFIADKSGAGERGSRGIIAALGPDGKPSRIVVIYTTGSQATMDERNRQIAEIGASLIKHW

CN1CCN(NC(=O)CN2C(=O)/C(=C/c3c(Cl)cccc3Cl)SC2=S)CC1
IC50: > 60 µM (inactive)

CN1CCN(NC(=O)CN2C(=O)/C(=C/c3c(Cl)ccc(Cl)c3Cl)SC2=S)CC1
IC50: > 60 µM (inactive)
